Like-named read-outs stand apart in the source and are kept apart here.
Tested on: caudate lesioned mouse
Assay: caudate lesioned mouse test (anti-parkinson activity)
Assay type: in vivo
Conditions: Mus musculus
Summary of the method: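 Mice with unilateral caudate lesions, recovered ≥14 days, kept only if circling toward lesion in all three periods after apomorphine 1.7 mg/kg i.p. Test drugs given in 1% gum tragacanth; doses as mg/kg free base.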

[1] = 0.5 h, dose 0.208 m. mole/kg, 1/2 h post-drug, read-out: No. Mice Affected/No. Mice Tested, 1/2 h (converted)
[2] = 0.5 h, dose 0.416 m. mole/kg, 1/2 h post-drug, read-out: No. Mice Affected/No. Mice Tested, 1/2 h (converted)
[3] = dose 0.208 m. mole/kg, 1 h post-drug, read-out: No. Mice Affected/No. Mice Tested, 1 h
[4] = dose 0.208 m. mole/kg, 4 h post-drug, read-out: No. Mice Affected/No. Mice Tested, 4 h (converted)
[5] = dose 0.208 m. mole/kg, 6 h post-drug, read-out: No. Mice Affected/No. Mice Tested, 6 h (converted)
[6] = dose 0.208 m. mole/kg, 24 h post-drug, read-out: No. Mice Affected/No. Mice Tested, 24 h (converted)
[7] = dose 0.208 m. mole/kg, total, read-out: No. Mice Affected/No. Mice Tested, Total (converted)
[8] = dose 0.416 m. mole/kg, 1 h post-drug, read-out: No. Mice Affected/No. Mice Tested, 1 h (converted)
[9] = dose 0.416 m. mole/kg, 4 h post-drug, read-out: No. Mice Affected/No. Mice Tested, 4 h (converted)
[10] = dose 0.416 m. mole/kg, 6 h post-drug, read-out: No. Mice Affected/No. Mice Tested, 6 h (converted)
[11] = dose 0.416 m. mole/kg, 24 h post-drug, read-out: No. Mice Affected/No. Mice Tested, 24 h
[12] = dose 0.416 m. mole/kg, total, read-out: No. Mice Affected/No. Mice Tested, Total (converted)
[13] = 0.5 h, read-out: No. Mice Affected/No. Mice Tested, 1/2 h
[14] = 1 h, read-out: No. Mice Affected/No. Mice Tested, 1 h
[15] = 4 h, read-out: No. Mice Affected/No. Mice Tested, 4 h
[16] = 6 h, read-out: No. Mice Affected/No. Mice Tested, 6 h
[17] = 24 h, read-out: No. Mice Affected/No. Mice Tested, 24 h
[18] = read-out: No. Mice Affected/No. Mice Tested, Total

| SMILES | responders at 208 µmol/kg [1] [%] | responders at 416 µmol/kg [2] [%] | responders at 208 µmol/kg [3] [%] | responders at 208 µmol/kg [4] [%] | responders at 208 µmol/kg [5] [%] | responders at 208 µmol/kg [6] [%] | responders at 208 µmol/kg [7] [%] | responders at 416 µmol/kg [8] [%] | responders at 416 µmol/kg [9] [%] | responders at 416 µmol/kg [10] [%] | responders at 416 µmol/kg [11] [%] | responders at 416 µmol/kg [12] [%] | also measured |
| --- | --- | --- | --- | --- | --- | --- | --- | --- | --- | --- | --- | --- | --- |
| CN1CCc2cccc3c2C1Cc1ccc(OC(=O)C(C)(C)C)c(OC(=O)C(C)(C)C)c1-3 (stereo not drawn) [Ref. 1C, reference compound] | 0 | 0 | 0 | 0 | 0 | 0 | 0 | 33.3 | 66.7 | 66.7 | 0 | 66.7 |  |
| CCCCCCCCCCCCCCCC(=O)Oc1ccc2c(c1OC(=O)CCCCCCCCCCCCCCC)-c1cccc3c1C(C2)N(C)CC3 (stereo not drawn) [Ref. 1D, reference compound] | 0 | 0 | 0 | 0 | 0 | 0 | 0 | 0 | 0 | 0 | 0 | 0 |  |
| CN1CCc2cccc3c2C1Cc1ccc(OC(=O)c2ccccc2)c(OC(=O)c2ccccc2)c1-3 (stereo not drawn) [Ref. 1E, reference compound] |  | 0 |  |  |  |  |  | 0 | 0 | 0 | 0 | 0 |  |
| CN1CCc2cccc3c2C1Cc1ccc(OC(=O)c2ccc(Cl)cc2)c(OC(=O)c2ccc(Cl)cc2)c1-3 (stereo not drawn) [Ref. 1F, reference compound] |  | 0 |  |  |  |  |  | 0 | 0 | 0 | 0 | 0 |  |
| CC(=O)Oc1ccc2c(c1OC(C)=O)-c1cccc3c1C(C2)N(C)CC3 (stereo not drawn) [Ref. 2, reference compound] |  |  |  |  |  |  |  |  |  |  |  |  | responders at 208 µmol/kg [13]: 0%; responders at 416 µmol/kg [13]: 25%; responders at 208 µmol/kg [14]: 0%; responders at 416 µmol/kg [14]: 50%; responders at 208 µmol/kg [15]: 0%; responders at 416 µmol/kg [15]: 75%; responders at 208 µmol/kg [16]: 0%; responders at 416 µmol/kg [16]: 75%; responders at 208 µmol/kg [17]: 25%; responders at 416 µmol/kg [17]: 25%; responders at 208 µmol/kg [18]: 25%; responders at 416 µmol/kg [18]: 75% |
| CCCCC(=O)Oc1ccc2c(c1OC(=O)CCCC)-c1cccc3c1C(C2)N(C)CC3 (stereo not drawn) [Ref. 2A, reference compound] | 0 | 33.3 | 0 | 0 | 0 | 0 | 0 | 0 | 0 | 0 | 0 | 33.3 |  |
